{"source": "patent US20120010131A1", "about": "“NOVEL CYCLOSPORIN ANALOGUES” (Scynexis, Inc., priority 2009, published 2012)", "key": {"IL-2 in Jurkat cells": {"tested_on": "IL-2 in Jurkat cells", "assay": "T cell stimulation (IL-2) in Jurkat cells with anti-CD3 and anti-CD28 co-stimulation", "type": "cell-based", "details": "6 hours, Luminex 1-plex", "protocol": "(§1) Compounds of the invention were tested for their T Cell stimulation (IL-2) in Jurkat cells with anti-CD3 and anti-CD28 co-stimulation. […] Cyclosporine A (control) was also run at a 0.5-Log 9-point titration, starting at 500 ng/mL. All compounds to be tested were dissolved in dimethyl sulfoxide. Cytotoxicity was evaluated with parallel Alamar Blue plates. Jurkat cells were seeded at 2×10^5 cells per well in 190 μL growth media in a 96-well plate, Cells were cultured in RPMI 1640 medium, 10% fetal bovine serum, and L-Glutamine with incubation at 37° C. with 5% carbon dioxide. After 1 hour of incubation the cells were stimulated with immobilized anti-CD3 (0.4m/well), anti-CD28 soluble (2 μg/mL). After 6 hours the sample supernatants were harvested and stored at −80° C. 50 μL samples of supernatant were tested for IL-2 using a Luminex® 1-plex assay."}, "[1]": {"tested_on": "HCV RNA replicon ET (luc ubi neo/ET)", "details": "read-out: EC50 (effective concentration that reduced viral replication by 50%); HCV replicon ET line, LUC reporter, 72 hours", "source_text": "Compounds were examined in the human hepatoma cell line ET (lub ubi neo/ET), a HCV RNA replicon containing a stable luciferase (LUC) reporter. The HCV RNA replicon ET contains the 5′ end of HCV (with the HCV Internal Ribosome Entry Site (IRES) and the first few amino acids of the HCV core protein) which drives the production of a firefly luciferase (LUC), ubiquitin, and neomycin phosphotransferase (NeoR) fusion protein. Ubiquitin cleavage releases the LUC and NeoR proteins. The EMCV IRES element controls the translation of the HCV […] proteins NS3-NS5. […] At the 3′ end of the replicon is the authentic 3′ NTR of HCV. The activity of the LUC reporter is directly proportional to HCV replication levels and positive-control antiviral compounds produce a reproducible antiviral response using the LUC endpoint.\nThe activity of the LUC reporter is directly proportional to HCV RNA levels in the human cell line."}, "[2]": {"tested_on": "mitochondrial permeability transition (MPT)", "assay": "Mitochondrial permeability transition: Ca2+-induced swelling of rat liver mitochondria", "type": "biochemical", "details": "swelling induced by 150 micromolar Ca2+, compound added 5 minutes before, read-out: EC50 (inhibition of mitochondrial swelling)", "protocol": "Mitochondrial permeability transition (MPT) was determined by measuring swelling of the mitochondria induced by Ca^2+. The procedure was adapted from the method described by Blattner et al, Analytical Biochem, Volume 295, page 220 (2001). Mitochondria were prepared from rat livers, which had been perfused with phosphate-buffered saline (PBS) to remove blood, using standard methods that utilized gentle homogenization in sucrose based buffer and then differential centrifugation to first remove cellular debris and then to pellet the mitochondria. Swelling was induced by 150 micromolar Ca^2+ (added from a concentrated solution of calcium chloride) and was monitored by measuring the scattering at 535-540 nm. Representative compounds were added 5 minutes before swelling was induced. EC50 were determined by comparing swelling with and without the compounds of the invention."}, "cyclophilin D": {"target": "cyclophilin D (Homo sapiens, UniProt P30405)", "sequence (P30405 30-207)": "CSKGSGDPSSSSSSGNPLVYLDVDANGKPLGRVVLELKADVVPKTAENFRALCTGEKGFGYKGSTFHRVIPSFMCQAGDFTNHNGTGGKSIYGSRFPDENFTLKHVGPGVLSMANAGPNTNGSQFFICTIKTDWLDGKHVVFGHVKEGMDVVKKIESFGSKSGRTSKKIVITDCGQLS", "assay": "Cyclophilin binding competitive ELISA, cyclophilin D", "details": "human recombinant cyclophilin", "protocol": "(§2) The cyclophilin inhibition binding of compounds of the invention was determined using a competitive ELISA adapted from the methods described by Quesniaux et al. (Eur. J Immunol. 1987, Vol. 17, pages 1359-1365). Activated ester of succinyl spacers bound to D-Lys^8-cylosporine A (D-Lys^8-Cs) was coupled to bovine serum albumin (BSA) through D-lysyl residue in position 8. BSA was dissolved in 0.1 M borate buffer, pH 9.0 (4 mg in 1.4 ml). A hundredfold molar excess of D-Lys^8-Cs dissolved in dimethyl formamide (0.6 ml) was added dropwise to the BSA under vigorous stirring. […] After acetone precipitation of an aliquot of the conjugated protein, no covalently bound D-Lys^8-Cs remained in the acetone solution and the extent of cyclosporine covalent binding was calculated.\n(§3) Microtiter Plates were coated with D-Lys^8-Cs-BSA conjugate ([…] in PBS for 24 hours at 4° C.). […] Cyclophilin was detected with anti-cyclophilin rabbit antiserum diluted in 1% BSA containing PBS and incubated overnight at 4° C. […] Bound rabbit antibodies were then detected by goat anti-rabbit IgG conjugated to alkaline phosphatase diluted in 1% BSA-PBS and allowed to incubate for 2 hours at 37° C. […] After incubation with 4-nitrophenyl phosphate (1 g/1 in diethanolamine buffer, pH 9.8) for 1 to 2 hours at 37° C., the enzymatic reaction was measured spectrophotometrically at 405 nm using a spectrophotometer."}, "Jurkat cells": {"tested_on": "Jurkat cells", "assay": "Cytotoxicity in parallel Alamar Blue plates (Jurkat cells)", "type": "cell-based", "protocol": "as §1"}, "cyclophilin A": {"target": "cyclophilin A (Homo sapiens, UniProt P62937)", "sequence (P62937 whole entry)": "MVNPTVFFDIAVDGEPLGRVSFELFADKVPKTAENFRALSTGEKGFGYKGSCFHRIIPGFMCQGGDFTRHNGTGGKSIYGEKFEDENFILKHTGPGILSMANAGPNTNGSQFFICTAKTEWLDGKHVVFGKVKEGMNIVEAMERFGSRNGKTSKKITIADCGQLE", "assay": "Cyclophilin binding competitive ELISA, cyclophilin A", "details": "human recombinant cyclophilin", "protocol": "as §2, §3"}, "cyclophilin B": {"target": "cyclophilin B (Homo sapiens, UniProt P23284)", "sequence (P23284 34-216)": "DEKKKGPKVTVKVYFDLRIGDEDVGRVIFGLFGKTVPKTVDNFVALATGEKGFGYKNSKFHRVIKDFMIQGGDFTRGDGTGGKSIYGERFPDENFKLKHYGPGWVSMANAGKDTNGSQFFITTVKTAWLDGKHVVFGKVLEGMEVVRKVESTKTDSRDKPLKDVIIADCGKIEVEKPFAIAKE", "assay": "Cyclophilin binding competitive ELISA, cyclophilin B", "details": "human recombinant cyclophilin", "protocol": "as §2, §3"}}}
{"smiles": "C/C=C/C[C@@H](C)[C@@H](O)[C@H]1C(=O)N[C@@H](CC)C(=O)N(C)CC(=O)N(C)[C@@H](CC(C)(C)OCc2ccccc2)C(=O)N[C@@H](C(C)C)C(=O)N(C)[C@@H](CC(C)C)C(=O)N[C@@H](C)C(=O)N[C@H](C)C(=O)N(C)[C@@H](CC(C)C)C(=O)N(C)[C@@H](CC(C)C)C(=O)N(C)[C@@H](C(C)C)C(=O)N1C", "note": "[Compound A, [4′-Benzyloxy-N-methylleucine]^4cyclosporine A]", "values": [{"measurement": "IL-2 activity EC50", "setting": "IL-2 in Jurkat cells", "result": 0.043, "unit": "µg/mL"}, {"measurement": "EC50", "setting": "[1]", "result": 410, "unit": "nM"}, {"measurement": "EC50", "setting": "[2]", "result": "< 10000", "unit": "nM"}, {"measurement": "cyclophilin D binding value", "setting": "cyclophilin D", "result": 124, "unit": "ng/mL"}, {"measurement": "Cytotoxicity", "setting": "Jurkat cells", "result": "absence of cytotoxicity"}, {"measurement": "cyclophilin A binding value", "setting": "cyclophilin A", "result": "≤ 98", "unit": "ng/mL"}, {"measurement": "cyclophilin B binding value", "setting": "cyclophilin B", "result": 102, "unit": "ng/mL"}]}
